Laboratory results as given in article PMC10058894, “Bioactive C21 Steroidal Glycosides from Euphorbia kansui Promoted HepG2 Cell Apoptosis via the Degradation of ATP1A1 and Inhibited Macrophage Polarization under Co-Cultivation” (Molecules, 2023).

What was measured:
ATP1A1 [1] = target: T1, ATP1A1 (Homo sapiens, UniProt P05023); assay: Western blot of ATP1A1 in Huh-7 cells; type: cell-based; design: endogenous in cells
Excerpt: 2. The anti-proliferation of compound 5 on Huh-7 cells
We tested another hepatoma cell line (Huh-7) to validate effect of compound 5. L02 (normal hepatocytes), HepG2 and Hub-7 cells were used to discuss the effect of 5. […]
of 5 on Huh-7 cell was (24.49±[…]) μM (Table S1). The morphology and apoptosis of the cells by reversed microscope and flow cytometry, respectively.
Second, the expression and phosphorylation of ATP1A1 were detected by Western blot analysis in L02, HepG2 and Huh-7 cells. Compared with L02 group, the expression of ATP1A1 was higher in HepG2 and Huh-7 cells, but there was no significant difference in the phosphorylation of ATP1A1 (Figure […]
At last, the effect of 5 on the expression and the phosphorylation of ATP1A1 in Huh-7 cells was […]
the phosphorylation of ATP1A1. The result was consistent with that observed in HepG2 cells (Figure […]
Table S1 Cell viability of Huh-7 cell treated by compound 5
Figure S2 Compound 5 inhibited the proliferation and the level of ATP1A1 protein in Huh-7 cells L5, low concentration of 5 (12.5 μmol-1 ); H5, high concentration of 5 (25 μmol-1). […] (B) Image of cell apoptosis in Huh-7 cells was detected by flow cytometry. The cells were double stained with Annexin V and PI. […] Data are expressed as the mean ± standard deviation (n=3). *p<0.05, **p<0.01, ***p<0.001 vs. the control group. […]

CETSA binding assay = conditions: 50 μmoL−1, western blot
Procedure: (§1) Figure 4 Compound 5 promoted the endocytosis and degradation of ATP1A1. (A) HepG2 cells were treated with 12.5 μmol∙L^−1 or 25 μmol∙L^−1 5 for 48 h, and the lysosomal co-localization assay was performed with a confocal laser. (B) Cells exposed to 25 μmol∙L^−1 5 for 12 h or 24 h were detected by fluorescence staining. (C) 5 is depicted in red, and the chains of Na^+, K^+-ATPase α/β/γ are represented by light blue, cyan-blue, and magenta, respectively. The crystallography, atomic coordinates, and structure factors have been deposited in the Protein Data Bank, www.pdb.org (accessed on 1 February 2023) (PDB ID code 3KDP). (D) The CETSA binding assay of ATP1A1 and β-actin in the presence or absence of 5 (50 μmoL^−1) at different temperatures was detected by western blot. The temperature-dependent melting curves and the apparent aggregation temperature were calculated by nonlinear regression. Values represent the mean ± SEM (N = 3 replicates).

ATP1A1 [2] = target: T1, ATP1A1; assay: CETSA binding assay; design: we focused on the regulatory effect of 5 on ATP1A1 in HepG2 cells; endogenous in cells; host or cells: HepG2; conditions: 50 μmoL−1, western blot
Procedure: as §1

[3] = test system: HepG2 and RAW264.7 co-cultivation; assay: Western blot in HepG2 and RAW264.7 co-cultivation; type: cell-based; conditions: 25 μmol∙L−1, 48 h
Procedure: L02, HepG2, and RAW264.7 cells were incubated in DMEM (Gibco, Carlsabad, CA, USA). Then, they were supplemented with 10% FBS (Gibco, Carlsbad, CA, USA) and 100 IU/mL streptomycin-penicillin (Solarbio, Beijing, China) in a CO2 chamber at 37 °C and 95% humidity. The morphology of the cells was observed using a reversed microscope (Olympus Corporation, Shinjuku, Japan) at × 200 magnifications. The Tissue Culture Plate Insert (LABSELECT, Beijing, China, Lot: 20421087A) chambers were used for HepG2 and RAW264.7-cell co-cultivation.
Protein samples were prepared using a RIPA lysis buffer. The concentration of the protein was analyzed using a nucleic acid and protein microanalyzer (Molecular Devices, San Jose, CA, USA). SDS–PAGE was performed to separate the proteins, which were then electrotransferred onto a PVDF membrane. The membrane was incubated with antibodies at 4 °C overnight. Next, the membrane was washed and incubated with an HRP-conjugated secondary antibody (Beyotime, BeiJing, China). Finally, signals were detected by the ECL method (Beyotime, BeiJing, China) and analyzed using ImageJ software.
RAW264.7 cells (1.5 × 10^5 cells/well) and HepG2 cells (4 × 10^5 cells/well) were incubated in a Tissue Culture Plate Insert (LABSELECT, Hangzhou, China) at 37 °C and 95% humidity. Raw264.7 cells were incubated in 12-well plates, and HepG2 cells were incubated in Transwell chambers. After 24 h, the cells were treated with the compound for 48 h. Then, the chamber was discarded, and RAW264.7 cells were washed twice with PBS and a fresh medium. Next, 1.5 mL/well and 100 μL/well FluoSpheresTM carboxylate (Invitrogen, Carlsbad, CA, USA) were added to the medium for 2 h in the dark. Cells were washed twice with PBS, harvested, and then resuspended in 0.5 mL PBS. Finally, the cells were measured by a FACSCalibur (Becton Dickinson, Franklin Lakes, NJ, USA). Data were analyzed using FlowJo software.

Compound: C[C@H](O)[C@]1(O)CC[C@@]2(O)[C@]1(C)[C@H](OC(=O)/C=C/c1ccccc1)C[C@@H]1[C@@]3(C)CC[C@H](O[C@H]4C[C@H](O)[C@H](O)[C@@H](C)O4)CC3=CC[C@]12O [Compound 5, Cynsaccatol L]
- level of ATP1A1 in Huh-7 (ATP1A1 [1]): reduced
- denaturation temperature of β-actin (CETSA) (CETSA binding assay): did not change
- denaturation temperature of ATP1A1 (CETSA) (ATP1A1 [2]): higher than that of the control group
- Bcl2 expression ([3]; vs C and C1 groups): down-regulating
- expression of cleaved-caspase 3, cleaved-caspase 8, LC3B, p62 and Bax ([3]; vs C and C1 groups): significantly upregulate
- expression of CD206 and ARG-1 ([3]; western blot): downregulated
